Assay results from US20230000876A1, “TREATING CANCERS WITH A CYCLIN-DEPENDENT KINASE INHIBITOR” (Nuvation Bio Inc., priority 2021, published 2023).
Read-outs that look alike come from different tables or passages of the source.

Test system: MCF-7 tumors
Format: in vivo
Conditions: for T/C / TGI: PG-D37
Description: The in vivo anti-tumor efficacy of the compound of formula (I) either alone or in combination with fulvestrant on MCF-7 breast tumor model on female Balb/c nude mice was assessed. MCF-7 cells are a breast cancer cell line that is HR+HER2−. See Booms et al., (2019) Cancer Epidemiol Biomarkers Prev 28(10); 1735-1745, which is hereby incorporated by reference.
The study was in two parts. The first part was designed to measure tumor growth inhibition (TGI). The second part was used to measure pharmacokinetic and pharmacodynamic (PKPD) parameters. In the studies, the compound of formula (I) was dosed orally (po) and fulvestrant was dosed subcutaneously. […]
The MCF-7 tumor cells were maintained in vitro in MEM supplemented with 10% heat inactivated fetal bovine serum at 37° C. in an atmosphere of 5% CO2 in air. The tumor cells were routinely subcultured twice weekly. The cells growing in an exponential growth phase were harvested and counted for tumor inoculation.
Each mouse was inoculated subcutaneously at the right flank with MCF-7 (10*10^6) cells in 0.2 mL of PBS mixed with Matrigel (50:50) for tumor development. 17β-Estradiol (0.36 mg, 60-day release) pellets (Innovative Research of America Cat. No.: SE-121, pellet size: 3.0 mm) were implanted 2 days before cell inoculation.
In TGI part, the treatments was started on day 7 after cell inoculation when the average tumor volume reaches 173 mm^3. 72 mice were selected and assigned into 9 groups. The testing articles were administrated to the mice according to Table 1.
For TGI part, the major endpoint was to see if the tumor growth could be delayed or mice could be cured. Tumor size was measured twice weekly in two dimensions using a caliper, and the volume was expressed in mm^3 using the formula: V=0.5 a×b^2 where a and b are the long and short diameters of the tumor, respectively. The tumor sizes are then used for the calculation of T/C and TGI values.
The T/C value (in percent) is an indication of antitumor effectiveness; T and C are the mean volume of the treated and control groups, respectively, on a given day.
TGI was calculated for each group using the formula: TGI (%)=[1−(Ti−T0)/(Vi−V0)]×100; Ti is the average tumor volume of a treatment group on PG-Di, T0 is the average tumor volume of the treatment group on the day of treatment start, Vi is the average tumor volume of the vehicle control group on the same day with Ti, and V0 is the average tumor volume of the vehicle group on the day of treatment start.
For comparison among of tumor volume of groups 2-9 and group 1, a one-way ANOVA was performed. All the analysis were conducted using GraphPad Prism software. p<0.05 was considered to be statistically significant.

## CC(C)N1CCOc2c(F)cc(-c3nc(Nc4ccc(C5CCN(C)CC5)cn4)ncc3F)cc21 [Compound (I), 5-fluoro-4-(8-fluoro-4-isopropyl-3,4-dihydro-2H-benzo[b][1,4]oxazin-6-yl)-N-(5-(1-methylpiperidin-4-yl)pyridin-2-yl)pyrimidin-2-amine]
10 mg/kg PO QD, day 0
  Tumor volume (mean ± SEM): 173 ± 12 mm^3
10 mg/kg PO QD, day 3
  Tumor volume (mean ± SEM): 195 ± 14 mm^3
10 mg/kg PO QD, day 6
  Tumor volume (mean ± SEM): 188 ± 25 mm^3
10 mg/kg PO QD, day 9
  Tumor volume (mean ± SEM): 185 ± 15 mm^3
10 mg/kg PO QD, day 13
  Tumor volume (mean ± SEM): 179 ± 21 mm^3
10 mg/kg PO QD, day 16
  Tumor volume (mean ± SEM): 187 ± 22 mm^3
10 mg/kg PO QD, day 20
  Tumor volume (mean ± SEM): 228 ± 36 mm^3
10 mg/kg PO QD, day 23
  Tumor volume (mean ± SEM): 268 ± 37 mm^3
10 mg/kg PO QD, day 27
  Tumor volume (mean ± SEM): 310 ± 56 mm^3
10 mg/kg PO QD, day 30
  Tumor volume (mean ± SEM): 358 ± 60 mm^3
10 mg/kg PO QD, day 34
  Tumor volume (mean ± SEM): 446 ± 93 mm^3
10 mg/kg PO QD, day 37
  Tumor volume (mean ± SEM): 505 ± 116 mm^3
10 mg/kg PO QD, day 41
  Tumor volume (mean ± SEM): 530 ± 113 mm^3
10 mg/kg PO QD, day 44
  Tumor volume (mean ± SEM): 468 ± 99 mm^3
10 mg/kg PO QD, day 48
  Tumor volume (mean ± SEM): 472 ± 120 mm^3
10 mg/kg QD
  T/C: 25.18%
  TGI: 81.88%
30 mg/kg PO QD, day 0
  Tumor volume (mean ± SEM): 173 ± 11 mm^3
30 mg/kg PO QD, day 3
  Tumor volume (mean ± SEM): 192 ± 16 mm^3
30 mg/kg PO QD, day 6
  Tumor volume (mean ± SEM): 151 ± 24 mm^3
30 mg/kg PO QD, day 9
  Tumor volume (mean ± SEM): 153 ± 19 mm^3
30 mg/kg PO QD, day 13
  Tumor volume (mean ± SEM): 147 ± 17 mm^3
30 mg/kg PO QD, day 16
  Tumor volume (mean ± SEM): 154 ± 18 mm^3
30 mg/kg PO QD, day 20
  Tumor volume (mean ± SEM): 159 ± 21 mm^3
30 mg/kg PO QD, day 23
  Tumor volume (mean ± SEM): 175 ± 23 mm^3
30 mg/kg PO QD, day 27
  Tumor volume (mean ± SEM): 168 ± 25 mm^3
30 mg/kg PO QD, day 30
  Tumor volume (mean ± SEM): 186 ± 28 mm^3
30 mg/kg PO QD, day 34
  Tumor volume (mean ± SEM): 193 ± 34 mm^3
30 mg/kg PO QD, day 37
  Tumor volume (mean ± SEM): 227 ± 41 mm^3
30 mg/kg PO QD, day 41
  Tumor volume (mean ± SEM): 228 ± 51 mm^3
30 mg/kg PO QD, day 44
  Tumor volume (mean ± SEM): 234 ± 52 mm^3
30 mg/kg PO QD, day 48
  Tumor volume (mean ± SEM): 206 ± 39 mm^3
30 mg/kg QD
  T/C: 11.32%
  TGI: 97.06%
MCF-7 tumor-bearing mice, 10 or 30 mg/kg PO QD, alone or with fulvestrant, 49 days
  Toxicity (body weight as indirect measurement): not toxic
